{
  "source": "PubChem BioAssay (NCI)",
  "test_in_all_cases": "DTP human tumour cell line panel, 48 h",
  "key": {"NCI/ADR-RES ovarian": {"test_system": "NCI/ADR-RES ovarian"}, "KM12 colon": {"test_system": "KM12 colon"}, "SNB-75 CNS": {"test_system": "SNB-75 CNS"}, "OVCAR-8 ovarian": {"test_system": "OVCAR-8 ovarian"}, "T-47D breast": {"test_system": "T-47D breast"}, "DU-145 prostate": {"test_system": "DU-145 prostate"}, "UACC-62 melanoma": {"test_system": "UACC-62 melanoma"}, "SK-MEL-28 melanoma": {"test_system": "SK-MEL-28 melanoma"}, "RPMI-8226 leukemia": {"test_system": "RPMI-8226 leukemia"}, "MDA-MB-231 breast": {"test_system": "MDA-MB-231 breast"}, "UACC-257 melanoma": {"test_system": "UACC-257 melanoma"}, "OVCAR-5 ovarian": {"test_system": "OVCAR-5 ovarian"}, "EKVX NSCLC": {"test_system": "EKVX NSCLC"}, "MCF7 breast": {"test_system": "MCF7 breast"}, "MDA-MB-435": {"test_system": "MDA-MB-435"}, "HCT-15 colon": {"test_system": "HCT-15 colon"}, "HCC-2998 colon": {"test_system": "HCC-2998 colon"}, "HS 578T breast": {"test_system": "HS 578T breast"}, "SK-MEL-2 melanoma": {"test_system": "SK-MEL-2 melanoma"}, "SF-268 CNS": {"test_system": "SF-268 CNS"}, "K-562 leukemia": {"test_system": "K-562 leukemia"}, "SK-MEL-5 melanoma": {"test_system": "SK-MEL-5 melanoma"}, "HCT-116 colon": {"test_system": "HCT-116 colon"}, "HT29 colon": {"test_system": "HT29 colon"}, "MOLT-4 leukemia": {"test_system": "MOLT-4 leukemia"}, "RXF 393 renal": {"test_system": "RXF 393 renal"}, "NCI-H522 lung": {"test_system": "NCI-H522 lung"}, "CCRF-CEM leukemia": {"test_system": "CCRF-CEM leukemia"}, "HL-60(TB) leukemia": {"test_system": "HL-60(TB) leukemia"}, "HOP-92 NSCLC": {"test_system": "HOP-92 NSCLC"}, "NCI-H460 lung": {"test_system": "NCI-H460 lung"}, "SN12C renal": {"test_system": "SN12C renal"}, "HOP-62 NSCLC": {"test_system": "HOP-62 NSCLC"}, "COLO 205 colon": {"test_system": "COLO 205 colon"}, "PC-3 prostate": {"test_system": "PC-3 prostate"}, "CAKI-1 renal": {"test_system": "CAKI-1 renal"}, "786-0 renal": {"test_system": "786-0 renal"}, "LOX IMVI melanoma": {"test_system": "LOX IMVI melanoma"}, "SF-295 CNS": {"test_system": "SF-295 CNS"}, "M14 melanoma": {"test_system": "M14 melanoma"}, "UO-31 renal": {"test_system": "UO-31 renal"}, "NCI-H226 lung": {"test_system": "NCI-H226 lung"}, "BT-549 breast": {"test_system": "BT-549 breast"}, "SR leukemia": {"test_system": "SR leukemia"}, "SF-539 CNS": {"test_system": "SF-539 CNS"}, "ACHN renal": {"test_system": "ACHN renal"}, "NCI-H23 lung": {"test_system": "NCI-H23 lung"}, "A498 renal": {"test_system": "A498 renal"}, "MDA-N": {"test_system": "MDA-N"}, "TK-10 renal": {"test_system": "TK-10 renal"}, "U251 CNS": {"test_system": "U251 CNS"}, "OVCAR-3 ovarian": {"test_system": "OVCAR-3 ovarian"}, "IGROV1 ovarian": {"test_system": "IGROV1 ovarian"}, "SNB-19 CNS": {"test_system": "SNB-19 CNS"}, "SW-620 colon": {"test_system": "SW-620 colon"}, "A549 NSCLC": {"test_system": "A549 NSCLC"}},
  "note": "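Cells were grown in 96-well plates and exposed to each compound for 48 hours at five concentrations; endpoints were interpolated linearly between bracketing concentrations, or set to the highest concentration if not reached. The concentration for full growth arrest is given as TGI.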",
  "data": [
    {"smiles": "O=C(Nc1ccccc1)c1cc(S(=O)(=O)n2cc[nH]c2=O)c(S)cc1Cl", "values": [
      {"measurement": "TGI", "setting": "NCI/ADR-RES ovarian", "value": "> 100", "unit": "µM"},
      {"measurement": "TGI", "setting": "KM12 colon", "value": "> 100", "unit": "µM"},
      {"measurement": "TGI", "setting": "SNB-75 CNS", "value": 97.5, "unit": "µM"},
      {"measurement": "TGI", "setting": "OVCAR-8 ovarian", "value": "> 100", "unit": "µM"},
      {"measurement": "TGI", "setting": "T-47D breast", "value": "> 100", "unit": "µM"},
      {"measurement": "TGI", "setting": "DU-145 prostate", "value": "> 100", "unit": "µM"},
      {"measurement": "TGI", "setting": "UACC-62 melanoma", "value": "> 100", "unit": "µM"},
      {"measurement": "TGI", "setting": "SK-MEL-28 melanoma", "value": "> 100", "unit": "µM"},
      {"measurement": "TGI", "setting": "RPMI-8226 leukemia", "value": "> 100", "unit": "µM"},
      {"measurement": "TGI", "setting": "MDA-MB-231 breast", "value": "> 100", "unit": "µM"},
      {"measurement": "TGI", "setting": "UACC-257 melanoma", "value": "> 100", "unit": "µM"},
      {"measurement": "TGI", "setting": "OVCAR-5 ovarian", "value": "> 100", "unit": "µM"},
      {"measurement": "TGI", "setting": "EKVX NSCLC", "value": "> 100", "unit": "µM"},
      {"measurement": "TGI", "setting": "MCF7 breast", "value": "> 100", "unit": "µM"},
      {"measurement": "TGI", "setting": "MDA-MB-435", "value": "> 100", "unit": "µM"},
      {"measurement": "TGI", "setting": "HCT-15 colon", "value": "> 100", "unit": "µM"},
      {"measurement": "TGI", "setting": "HCC-2998 colon", "value": "> 100", "unit": "µM"},
      {"measurement": "TGI", "setting": "HS 578T breast", "value": "> 100", "unit": "µM"},
      {"measurement": "TGI", "setting": "SK-MEL-2 melanoma", "value": "> 100", "unit": "µM"},
      {"measurement": "TGI", "setting": "SF-268 CNS", "value": "> 100", "unit": "µM"},
      {"measurement": "TGI", "setting": "K-562 leukemia", "value": "> 100", "unit": "µM"},
      {"measurement": "TGI", "setting": "SK-MEL-5 melanoma", "value": "> 100", "unit": "µM"},
      {"measurement": "TGI", "setting": "HCT-116 colon", "value": "> 100", "unit": "µM"},
      {"measurement": "TGI", "setting": "HT29 colon", "value": "> 100", "unit": "µM"},
      {"measurement": "TGI", "setting": "MOLT-4 leukemia", "value": "> 100", "unit": "µM"},
      {"measurement": "TGI", "setting": "RXF 393 renal", "value": "> 100", "unit": "µM"},
      {"measurement": "TGI", "setting": "NCI-H522 lung", "value": "> 100", "unit": "µM"},
      {"measurement": "TGI", "setting": "CCRF-CEM leukemia", "value": "> 100", "unit": "µM"},
      {"measurement": "TGI", "setting": "HL-60(TB) leukemia", "value": "> 100", "unit": "µM"},
      {"measurement": "TGI", "setting": "HOP-92 NSCLC", "value": "> 100", "unit": "µM"},
      {"measurement": "TGI", "setting": "NCI-H460 lung", "value": "> 100", "unit": "µM"},
      {"measurement": "TGI", "setting": "SN12C renal", "value": "> 100", "unit": "µM"},
      {"measurement": "TGI", "setting": "HOP-62 NSCLC", "value": "> 100", "unit": "µM"},
      {"measurement": "TGI", "setting": "COLO 205 colon", "value": "> 100", "unit": "µM"},
      {"measurement": "TGI", "setting": "PC-3 prostate", "value": "> 100", "unit": "µM"},
      {"measurement": "TGI", "setting": "CAKI-1 renal", "value": "> 100", "unit": "µM"},
      {"measurement": "TGI", "setting": "786-0 renal", "value": "> 100", "unit": "µM"},
      {"measurement": "TGI", "setting": "LOX IMVI melanoma", "value": "> 100", "unit": "µM"},
      {"measurement": "TGI", "setting": "SF-295 CNS", "value": "> 100", "unit": "µM"},
      {"measurement": "TGI", "setting": "M14 melanoma", "value": "> 100", "unit": "µM"},
      {"measurement": "TGI", "setting": "UO-31 renal", "value": "> 100", "unit": "µM"},
      {"measurement": "TGI", "setting": "NCI-H226 lung", "value": "> 100", "unit": "µM"},
      {"measurement": "TGI", "setting": "BT-549 breast", "value": "> 100", "unit": "µM"},
      {"measurement": "TGI", "setting": "SR leukemia", "value": "> 100", "unit": "µM"},
      {"measurement": "TGI", "setting": "SF-539 CNS", "value": "> 100", "unit": "µM"},
      {"measurement": "TGI", "setting": "ACHN renal", "value": "> 100", "unit": "µM"},
      {"measurement": "TGI", "setting": "NCI-H23 lung", "value": "> 100", "unit": "µM"},
      {"measurement": "TGI", "setting": "A498 renal", "value": "> 100", "unit": "µM"},
      {"measurement": "TGI", "setting": "MDA-N", "value": "> 100", "unit": "µM"},
      {"measurement": "TGI", "setting": "TK-10 renal", "value": "> 100", "unit": "µM"},
      {"measurement": "TGI", "setting": "U251 CNS", "value": "> 100", "unit": "µM"},
      {"measurement": "TGI", "setting": "OVCAR-3 ovarian", "value": "> 100", "unit": "µM"},
      {"measurement": "TGI", "setting": "IGROV1 ovarian", "value": "> 100", "unit": "µM"},
      {"measurement": "TGI", "setting": "SNB-19 CNS", "value": "> 100", "unit": "µM"},
      {"measurement": "TGI", "setting": "SW-620 colon", "value": "> 100", "unit": "µM"},
      {"measurement": "TGI", "setting": "A549 NSCLC", "value": "> 100", "unit": "µM"}
    ]}
  ]
}
